# From patent US20230295166A1, “ATR INHIBITORS AND USES THEREOF” (ANTENGENE DISCOVERY LIMITED, priority 2020, published 2023)
# Test system: LoVo (CCL-229) cells
# Assay: Tumor cell anti-proliferation assay (CTG assay)
# Type: cell-based
# Conditions: LoVo human colorectal cancer cells, 96 h, CellTiter-Glo
# Procedure: Assay 2: Tumor Cell Anti-proliferation Assay (CTG Assay)
# Human colorectal cancer cells HT-29 (HTB-38) and LoVo (CCL-229) were selected for the CTG assay, the two cell lines were originally obtained from the American Type Culture Collection (ATCC). FBS and appropriate additives were added into base medium to prepare complete medium, then the cell layer was briefly rinsed with 0.25% (w/v) Trypsin-0.038% (w/v) EDTA solution to remove all traces of serum that contains trypsin inhibitor. After that, appropriate volume of Trypsin-EDTA solution was added to flask and cells under an inverted microscope were observed until cell layer was dispersed. At last, appropriate volume of complete growth medium was added and cells were aspirated by gently pipetting. Numbers were collected and counted with Vi-cell XR and cell density was adjusted, cells were seeded into 96-well opaque-walled clear bottom tissue-culture treated plates in the CO2 incubator for 20-24 hours. All the test compounds were at 10 mM in DMSO. Compounds were then added to the cell media in 3-fold serial dilutions, the final DMSO concentration was 0.5%. Plates were incubated for 96 h at 5% CO2, 37° C. Before the measurement, the appropriate volume of CellTiter-Glo Buffer was transferred into the amber bottle containing CellTiter-Glo substrate to reconstitute the lyophilized enzyme/substrate mixture, mixed gently, thereby forming the CellTiter-Glo Reagent (Promega Cat. No. G7573). The plate and its contents were equilibrated to room temperature for approximately 30 minutes, then 100 μL of CellTiter-Glo Reagent was added to the assay plate, the contents were mixed for 2 minutes on an orbital shaker to induce cell lysis, incubated at room temperature for 10 minutes to stabilize luminescent signal. At last the clear bottom was pasted with white back seal and luminescence was recorded with Enspire. IC50 and GI50 values were calculated with XLFit curve fitting software using 4 Parameter Logistic Model Y=Bottom+(Top−Bottom)/(1+(IC50/X)^HillSlope).
row,Compound,IC50
1,"Cc1cc(-c2nsc3c(C4(C(N)=O)CCCCC4)cc(N4CCOC[C@H]4C)nc23)[nH]n1 [Example 88, (R)-1-(3-(3-methyl-1H-pyrazol-5-yl)-5-(3-methylmorpholino)isothiazolo[4,5-b]pyridin-7-yl)cyclohexane-1-carboxamide]",1 nM
2,"Cc1cc(-c2nsc3c(P(C)(C)=O)cc(N4CCOC[C@H]4C)nc23)n(C2CCCCO2)n1 (stereo partly drawn) [Example 108, dimethyl(3-(3-methyl-1-(tetrahydro-2H-pyran-2-yl)-1H-pyrazol-5-yl)-5-((R)-3-methylmorpholino)isothiazolo[4,5-b]pyridin-7-yl)phosphine oxide]",35 nM
3,"Cc1cc(-c2nsc3c(N4CCCCS4(=O)=O)cc(N4CCOC[C@H]4C)nc23)[nH]n1 [Example 82, 2-[3-(3-methyl-1H-pyrazol-5-yl)-5-[(3R)-3-methylmorpholin-4-yl]-[1,2]thiazolo[4,5-b]pyridin-7-yl]-1λ^6,2-thiazinane-1,1-dione]",20 nM
4,"Cc1cnn(C)c1-c1cc(N2CCOC[C@H]2C)nc2c(-c3ccn[nH]3)nsc12 [Example 70, (R)-4-(7-(1,4-dimethyl-1H-pyrazol-5-yl)-3-(1H-pyrazol-5-yl)isothiazolo[4,5-b]pyridin-5-yl)-3-methylmorpholine]",18 nM
5,COC(=O)C1(c2cc(N3CCOC[C@H]3C)nc3c(-c4ccn[nH]4)nsc23)CCCC1 [Example 92],94 nM
6,"C[C@@H]1COCCN1c1cc(C2(C#N)CC2)c2cnc(-c3ccn[nH]3)n2n1 [Example 44, (R)-1-(2-(3-methylmorpholino)-7-(1H-pyrazol-5-yl)imidazo[1,5-b]pyridazin-4-yl)cyclopropane-1-carbonitrile]",43.9 nM
7,"Cc1nnn(C)c1-c1cc(N2CCOC[C@H]2C)nc2c(-c3ccn[nH]3)nsc12 [Example 38, (R)-4-(7-(1,4-dimethyl-1H-1,2,3-triazol-5-yl)-3-(1H-pyrazol-5-yl)isothiazolo[4,5-b]pyridin-5-yl)-3-methylmorpholine]",40.4 nM
8,"C[C@@H]1COCCN1c1cc(C2(S(C)(=O)=O)CC2)c2snc(-c3ccn[nH]3)c2n1 [Example 49, (R)-3-methyl-4-(7-(1-(methylsulfonyl)cyclopropyl)-3-(1H-pyrazol-5-yl)isothiazolo[4,5-b]pyridin-5-yl)morpholine]",16.1 nM
9,"Cc1cc(-c2nc(C)c3c(-c4c(C)nnn4C)cc(N4CCOC[C@H]4C)nn23)[nH]n1 [Example 46, (3R)-4-[4-(dimethyl-1H-1,2,3-triazol-5-yl)-5-methyl-7-(3-methyl-1H-pyrazol-5-yl)imidazo[1,5-b]pyridazin-2-yl]-3-methylmorpholine]",51.2 nM

# Next, values leading:
row,IC50,Compound
1,15 nM,"CCn1nncc1-c1cc(N2CCOC[C@H]2C)nc2c(-c3cc(C)n[nH]3)nsc12 [Example 107, (3R)-4-[7-(1-ethyl-1H-1,2,3-triazol-5-yl)-3-(3-methyl-1H-pyrazol-5-yl)-[1,2]thiazolo[4,5-b]pyridin-5-yl]-3-methylmorpholine]"
2,14 nM,"Cc1cc(-c2nsc3c(C4(CO)CC4)cc(N4CCOC[C@H]4C)nc23)[nH]n1 [Example 98, (R)-(1-(3-(3-methyl-1H-pyrazol-5-yl)-5-(3-methylmorpholino)isothiazolo[4,5-b]pyridin-7-yl)cyclopropyl)methanol]"
3,32.7 nM,"Cc1cc(-c2nsc3c(-c4cccnc4C(F)(F)F)cc(N4CCOC[C@H]4C)nc23)[nH]n1 [Example 96, (3R)-3-methyl-4-[3-(3-methyl-1H-pyrazol-5-yl)-7-[2-(trifluoromethyl)pyridin-3-yl]-[1,2]thiazolo[4,5-b]pyridin-5-yl]morpholine]"
4,36 nM,"Cc1cc(-c2nsc3c(-c4ccccc4S(C)(=O)=O)cc(N4CCOC[C@H]4C)nc23)[nH]n1 [Example 95, (3R)-4-[7-(2-methanesulfonylphenyl)-3-(3-methyl-1H-pyrazol-5-yl)-[1,2]thiazolo[4,5-b]pyridin-5-yl]-3-methylmorpholine]"
